Experimental data published in article PMC6112376, “Comprehensive Analyses and Prioritization of Tox21 10K Chemicals Affecting Mitochondrial Function by in-Depth Mechanistic Studies” (Environmental Health Perspectives, 2018).

Assays:
hNSC = assay: MMP assay in human neural stem cells (hNSC); assay type: cell-based; conditions: Homo sapiens, Neural stem cell, 1 h, read-out: hNSC IC50 (MMP)
HepG2 cells [1] = assay: ROS-Glo hydrogen peroxide (ROS) assay; assay type: cell-based, human; conditions: Homo sapiens, HepG2, 2 h, read-out: ROS (HepG2) EC50
HepG2 cells [2] = assay: Intracellular ATP content (cell viability) assay; assay type: cell-based, human; conditions: Homo sapiens, HepG2, 40 h
[3] = test system: p53 (p53-bla HCT-116 cells); assay: p53 β-lactamase reporter gene assay; assay type: cell-based, human; conditions: Homo sapiens; 16 h incubation; mean±SD of three experiments
[4] = test system: Nrf2/ARE (ARE-bla HepG2 cells); assay: ARE β-lactamase reporter gene assay; assay type: cell-based, human; conditions: Homo sapiens, HepG2; 16 h incubation; mean±SD of three experiments; read-out: ARE (HepG2) EC50
[5] = test system: isolated rat liver mitochondria; assay: Oxygen consumption, Clark-type oxygen electrode; assay type: biochemical
[6] = test system: HeLa cells expressing YFP-Parkin; assay: Parkin translocation assay; assay type: cell-based, human
rat primary hepatocytes [7] = test system: rat primary hepatocytes
HepG2 cells [8] = assay: cells; conditions: Homo sapiens, HepG2, 1 h
[9] = test system: Caenorhabditis elegans strain PE255; assay: In vivo C. elegans ATP status assay
rat primary hepatocytes [10] = assay: MMP assay in rat primary hepatocytes; conditions: Rattus norvegicus, Hepatocyte, 1 h, read-out: Rat hepatocytes IC50 (MMP)
[11] = test system: Caenorhabditis elegans (Bristol N2); assay: C. elegans larval development and growth assay

CCC(C)c1cc([N+](=O)[O-])cc([N+](=O)[O-])c1O (stereo not shown) [Dinoseb]
IC50 (hNSC): 22.3 µM | EC50 (HepG2 cells [1]): 27.6 µM | IC50 (HepG2 cells [2]; read-out: ATP (HepG2, galactose) IC50): 32.6 µM | IC50 (HepG2 cells [2]; read-out: ATP (HepG2, glucose) IC50): 36.8 µM | EC50 [3]: 2.63 ± 1.78 µM | EC50 [4]: 0.76 ± 0.13 µM | Potential Mechanism [5]: Uncoupler at low concentrations (0.032-0.16 µM), and Uncoupler + inhibitor at high concentrations (0.8-100 µM) | I-ADP, % of control (O2 consumption rate) ([5]; 0.0064 µM): 89 (38.7) % of control | I-sub, % of control (O2 consumption rate) ([5]; 0.0064 µM): 118 (15.5) % of control | II-ADP, % of control (O2 consumption rate) ([5]; 0.0064 µM): 98 (66.3) % of control | II-sub, % of control (O2 consumption rate) ([5]; 0.0064 µM): 122 (25.5) % of control | I-ADP, % of control (O2 consumption rate) ([5]; 0.032 µM): 97 (42.2) % of control | I-sub, % of control (O2 consumption rate) ([5]; 0.032 µM): 131 (17.2) % of control | II-ADP, % of control (O2 consumption rate) ([5]; 0.032 µM): 92 (62.6) % of control | II-sub, % of control (O2 consumption rate) ([5]; 0.032 µM): 137 (28.6) % of control | I-ADP, % of control (O2 consumption rate) ([5]; 0.16 µM): 106 (46.2) % of control | I-sub, % of control (O2 consumption rate) ([5]; 0.16 µM): 181 (23.7) % of control | II-ADP, % of control (O2 consumption rate) ([5]; 0.16 µM): 98 (66.1) % of control | II-sub, % of control (O2 consumption rate) ([5]; 0.16 µM): 199 (41.5) % of control | I-ADP, % of control (O2 consumption rate) ([5]; 0.8 µM): 138 (59.9) % of control | I-sub, % of control (O2 consumption rate) ([5]; 0.8 µM): 423 (55.4) % of control | II-ADP, % of control (O2 consumption rate) ([5]; 0.8 µM): 59 (40.0) % of control | II-sub, % of control (O2 consumption rate) ([5]; 0.8 µM): 193 (40.3) % of control | I-ADP, % of control (O2 consumption rate) ([5]; 4 µM): 111 (48.1) % of control | I-sub, % of control (O2 consumption rate) ([5]; 4 µM): 347 (45.5) % of control | II-ADP, % of control (O2 consumption rate) ([5]; 4 µM): 28 (19.1) % of control | II-sub, % of control (O2 consumption rate) ([5]; 4 µM): 96 (20.0) % of control | I-ADP, % of control (O2 consumption rate) ([5]; 20 µM): 70 (30.6) % of control | I-sub, % of control (O2 consumption rate) ([5]; 20 µM): 242 (31.7) % of control | II-ADP, % of control (O2 consumption rate) ([5]; 20 µM): 18 (12.1) % of control | II-sub, % of control (O2 consumption rate) ([5]; 20 µM): 64 (13.3) % of control | I-ADP, % of control (O2 consumption rate) ([5]; 100 µM): 13 (6.5) % of control | I-sub, % of control (O2 consumption rate) ([5]; 100 µM): 33 (7.1) % of control | II-ADP, % of control (O2 consumption rate) ([5]; 100 µM): 12 (6.9) % of control | II-sub, % of control (O2 consumption rate) ([5]; 100 µM): 22 (7.8) % of control | Parkin recruitment [6]: Active | Rat hepatocytes (efficacy) (MMP) (rat primary hepatocytes [7]): 4.50±0.81 ( −130±39.0 ) % | IC50 (HepG2 cells [8]; read-out: HepG2 IC50 Galactose (MMP)): 16.5 µM | IC50 (HepG2 cells [8]; read-out: HepG2 IC50 Glucose (MMP)): 12.4 µM | LUM: mean difference in luminescence (ATP content) relative to plate controls ([9]; 0.5 µM): 0.1603 | LUM: mean difference in luminescence (ATP content) relative to plate controls ([9]; 1 µM): 0.2694 | LUM: mean difference in luminescence (ATP content) relative to plate controls ([9]; 5 µM): 0.2298 | LUM: mean difference in luminescence (ATP content) relative to plate controls ([9]; 10 µM): 0.4579 | LUM: mean difference in luminescence (ATP content) relative to plate controls ([9]; 25 µM): 0.5745 | LUM: mean difference in luminescence (ATP content) relative to plate controls ([9]; 50 µM): 0.9424 | LUM: mean difference in luminescence (ATP content) relative to plate controls ([9]; 75 µM): 1.122 | LUM: mean difference in luminescence (ATP content) relative to plate controls ([9]; 100 µM): 1.3353 | minimal effective concentration ([9]; Caenorhabditis elegans, read-out: LEC LUM: lowest effect concentration for luminescence, a measure of nematode ATP content): 50 µM | IC50 (rat primary hepatocytes [10]): 4.5 µM | EXT: mean difference in nematode size relative to plate controls ([11]; 0.5 µM): -0.01247 | EXT: mean difference in nematode size relative to plate controls ([11]; 1 µM): -0.02122 | EXT: mean difference in nematode size relative to plate controls ([11]; 5 µM): -0.00308 | EXT: mean difference in nematode size relative to plate controls ([11]; 10 µM): 0.1196 | EXT: mean difference in nematode size relative to plate controls ([11]; 25 µM): 0.1256 | EXT: mean difference in nematode size relative to plate controls ([11]; 50 µM): 0.4169 | EXT: mean difference in nematode size relative to plate controls ([11]; 75 µM): 0.7162 | EXT: mean difference in nematode size relative to plate controls ([11]; 100 µM): 0.9301 | minimal effective concentration ([11]; Caenorhabditis elegans, read-out: LEC EXT: lowest effect concentration for extinction, a measure of nematode size): 50 µM
